Data as given in patent US5436243A, “Aminoanthraquinone derivatives to combat multidrug resistance” (priority 1993, dated 1995).
Entries after “also recorded” stand apart in the source; their conditions may differ.

Experiments:
[1] = Partition in Bligh-Dyer extracts; format: physicochemical; details: Bligh-Dyer extracts of treated cells
Description: At these wavelengths, there was minimal absorbance by cellular components contained in the chloroform phase. […] METHOD: […] The monolayers were treated with 25 μM 1b or 1c and incubated at 37° C. After incubating the samples for the times indicated in FIG. 1, the monolayers were washed three times with DPBS and detached using 1 ml of Trypsin-EDTA.An aliquot of the cell suspension was counted using a Coulter Counter and a 0.8 ml aliquot was extracted in a Bligh-Dyer extraction (Bligh et at., Can. J. Biochem. 31:911-916 (1959)). The absorbance of the lower chloroform phase was measured at 648 nm and 600 nm using a spectrophotometer. The amount of 1b or 1c present in the extract was quantitated from a standard curve performed in cell extracts. The data is expressed as nmol anthraquinone/10^6 cells.

[2] = test system: MCF7 Adr 10 human breast cancer cells; experiment: Vinblastine accumulation assay, MCF7 Adr 10; format: cell-based
Description: [^3 H] vinblastine ([^3 H] VLB) was added to a final concentration of 100 nM and the cells were incubated for 2.5 hours. At this time, the cells were washed 3 times in ice cold PBS and lysed in buffer containing 0.1% Triton X-100. Net accumulation of [^3 H] vinblastine was expressed as pmol/mg protein. In [^3 H]

[3] = test system: MCF7 Adr 10; experiment: Tumor cell clonogenic assay, MCF7 ADR 10; format: cell-based, human
Description: The tumor cell clonogenic assays measure clonal proliferation of tumor cells. In this assay, 300-500 cells are plated in 10 cm^2 wells, allowed to adhere overnight, and are treated the following day. Tumor cell colonies were counted after 10-12 days of culture. The times of exposure in these experiments are similar; however, the concentrations of FCS are 20% in the CFU-GM assay and 10% in the tumor cell clonogenic assays. The IC50's are calculated as described above for the MTT proliferation assays.

Structure (SMILES): O=C1c2ccccc2C(=O)c2c(NCCCN3CCOCC3)ccc(NCCCN3CCOCC3)c21 [Compound 1c, 1,4-bis-[[3'(4-morpholino)propyl]amino]anthraquinone]
- blue color partitioning with cellular phospholipids in the lower chloroform phase [1]: > 95%
- minimal effective concentration ([2]; Homo sapiens, NCI/ADR-RES, 100 nM [3H] VLB, 2.5 hours, FIGS. 2 and 3, read-out: lowest concentration which causes a doubling of basal accumulation of vinblastine): 0.5 µM
- activity in vinblastine accumulation assay / drug accumulation ([2]; MDR MCF7): greater activity than 1b; also recorded: greatest activity in drug accumulation assays; also recorded: increase vinblastine accumulation in MDR MCF7; also recorded: activity superior to verapamil at concentrations between 0.5 μM and 10 μM
- IC50 ([3]; Homo sapiens, NCI/ADR-RES, tumor cell clonogenic assay, 10-12 days, read-out: Continuous Exposure IC50, MCF7 ADR 10): 400 nM
- antiproliferative effect relative to human CFU-GM ([3]; MDR cancer cells, clonal proliferation assays): ~20 times
- relative sensitivity of MCF7 WT and MDR MCF7 to cytotoxicity ([3]; clonogenic assays): MDR MCF7 are twice as sensitive to 1c cytotoxicity as MCF7 WT
